“Also recorded” adds a separate entry of the source.
Assays:
Format in all cases: in vivo, DBA/1J mice
[1] = system: collagen induced arthritis (CIA) animal model; assay: Average arthritis score in collagen induced arthritis (CIA) animals; conditions: CIA mice; rebamipide 0.6 mg/kg or 6 mg/kg orally, every other day, ten times; evaluated second to tenth week; FIG. 1
[2] = system: collagen induced arthritis (CIA) animal model; assay: Histological test of joints and cartilage in CIA animals; conditions: CIA mice, FIG. 2
[3] = system: CII-specific immunoglobulin (total IgG); assay: Serologic test (ELISA) measuring collagen-specific antibody in serum of CIA animals; conditions: CIA mice, rebamipide orally, serum diluted 1:8000, FIG. 3

O=C(NC(Cc1cc(=O)[nH]c2ccccc12)C(=O)O)c1ccc(Cl)cc1 (stereo not shown) [rebamipide]
arthritis score [1]: dose-dependently decreased; also recorded: gradually decreased | degree of joint and cartilage destruction ([2]; rebamipide 0.6 mg/kg or 6 mg/kg orally, sacrificed after 10 weeks, hematoxylin and eosin, toluidine blue, safranin O): remarkably reduced | degree of cartilage destruction ([2]; rebamipide orally, histological assay): improved, being similar to that of a normal mouse | level of Type II collagen-specific immunoglobulin (total IgG) in serum [3]: significantly decreased

From patent US8691842B2, “Pharmaceutical composition for preventing or treating rheumatoid arthritis, containing rebamipide” (Catholic University Industry Academic Cooperation Foundation, priority 2009, dated 2014)
